Active and inactive are the calls of the source. The calls are words filed in the database; no cut-off is given here.
Experiments:
[1] = Cytotoxicity against human K562 cells incubated for 72 hrs by CellTiter 96 aqueous one solution reagent based assay; assay type: functional, cell-based
[2] = Cytotoxicity against doxorubicin-resistant human K562R cells incubated for 72 hrs by CellTiter 96 aqueous one solution reagent based assay; assay type: functional, cell-based; conditions: k-562r
[3] = Resistance index, ratio of IC50 for cytotoxicity against doxorubicin-resistant human K562R cells to IC50 for cytotoxicity against human K562 cells; assay type: functional
K562R [4] = test: Inhibition of P-gp in doxorubicin-resistant human K562R cells assessed as rhodamine influx by measuring mean fluorescence intensity at 10 uM incubated for 20 mins by flow cytometry; assay type: cell-based
K562R [5] = test: Inhibition of P-gp in doxorubicin-resistant human K562R cells assessed as rhodamine influx by measuring ratio of rhodamine mean fluorescence intensity in presence and absence of compound at 10 uM incubated for 20 mins by flow cytometry; assay type: cell-based
K562R [6] = conditions: Homo sapiens
Description: Inhibition of P-gp in doxorubicin-resistant human K562R cells assessed as rhodamine efflux by measuring mean fluorescence intensity at 10 uM incubated for 1 hr by flow cytometry (Rvb = 0.47 No_unit)

K562R [7] = test: Inhibition of P-gp in doxorubicin-resistant human K562R cells assessed as rhodamine influx by measuring ratio of rhodamine mean fluorescence intensity in presence and absence of compound at 5 uM incubated for 20 mins by flow cytometry; assay type: cell-based
[8] = Cytotoxicity against human MRC5 cells incubated for 72 hrs by CellTiter 96 aqueous one solution reagent based assay; assay type: toxicity, cell-based; conditions: mrc5, 72 h
[9] = Cytotoxicity against doxorubicin-resistant human K562R cells assessed as reduction in cell viability at 1 uM incubated for 72 hrs by CellTiter 96 aqueous one solution reagent based assay; assay type: functional, K562
[10] = Cytotoxicity against doxorubicin-resistant human K562R cells assessed as reduction in cell viability at 2 uM incubated for 72 hrs by CellTiter 96 aqueous one solution reagent based assay; assay type: functional, K562
K562R [11] = test: Inhibition of P-gp-mediated multidrug resistance in doxorubicin-resistant human K562R cells assessed as potentiation of 50 nM vinorelbine-induced cytotoxicity at 2 uM incubated for 72 hrs by CellTiter 96 aqueous one solution reagent based assay; assay type: cell-based
K562R [12] = test: Inhibition of P-gp-mediated multidrug resistance in doxorubicin-resistant human K562R cells assessed as potentiation of 5 nM vinorelbine-induced cytotoxicity by measuring cell viability at 1 uM incubated for 72 hrs by CellTiter 96 aqueous one solution reagent based assay
K562R [13] = test: Inhibition of P-gp-mediated multidrug resistance in doxorubicin-resistant human K562R cells assessed as potentiation of 1 uM doxorubicin-induced cytotoxicity by measuring cell death level at 2 uM incubated for 72 hrs by CellTiter 96 aqueous one solution reagent based assay; parameters: scale not given: the % may be the effect or the level left
K562 = test: Potentiation of 0.1 to 1 nM vinorelbine-induced cytotoxicity by measuring reduction in cell viability against human K562 cells at 2 uM incubated for 72 hrs by CellTiter 96 aqueous one solution reagent based assay; assay type: functional
Homo sapiens [14] = species: Homo sapiens; test: Stimulation of recombinant human P-gp ATPase activity at 10 uM by Pgp-Glo assay
Homo sapiens [15] = species: Homo sapiens; test: Inhibition of recombinant human P-gp ATPase activity at 40 uM by Pgp-Glo assay

SMILES | IC50 [1] [µmol] | IC50 [2] [µmol] | Ratio IC50 [3] | Flu intensity (K562R [4]) | Ratio (K562R [5]) | Flu intensity (K562R [6]) | inhibition (K562R [7]) | Activity [8] | Activity [9] [%] | Activity [10] [%] | inhibition (K562R [11]) | Activity (K562R [12]) [%] | Activity (K562R [13]) [%] | Activity (K562) [%] | Activity (Homo sapiens [14]) | inhibition (Homo sapiens [15])
C#Cc1ccc2[nH]c3c(c2c1)C/C(C(=O)OC)=C\N1CC(CC)=C[C@@H](C1)C[C@]3(C(=O)OC)c1cc2c(cc1OC)N(C)[C@H]1[C@@](O)(C(=O)OC)[C@H](OC(C)=O)[C@]3(CC)C=CCN4CC[C@]21[C@@H]43 | 0.6 | 3 | 5 | 1.6 | 0.9 | 0.45 | – | – | – | – | – | – | – | – | – | –
CCC1=C[C@H]2CN(C1)C[C@H](C(=O)OCc1ccccc1)Cc1c([nH]c3ccccc13)[C@@](C(=O)OC)(c1cc3c(cc1OC)N(C)[C@H]1[C@@](O)(C(=O)OC)[C@H](OC(C)=O)[C@]4(CC)C=CCN5CC[C@]31[C@@H]54)C2 | 0.4 | > 10 | >25 | 2.2 | 1.2 | 0.48 | – | – | – | – | – | – | – | – | – | –
CCC1=C[C@H]2CN(/C=C(/C(=O)OC)Cc3c([nH]c4ccc(Br)cc34)[C@@](C(=O)OC)(c3cc4c(cc3OC)N(C)[C@H]3[C@@](O)(C(=O)OC)[C@H](OC(C)=O)[C@]5(CC)C=CCN6CC[C@]43[C@@H]65)C2)C1 | 0.5 | 3 | 6 | 2.1 | 1.2 | 0.47 | – | – | – | – | – | – | – | – | – | –
CCC1=C[C@H]2CN(C1)C1=C(Cc3c([nH]c4ccccc34)[C@@](C(=O)OC)(c3cc4c(cc3OC)N(C)[C@H]3[C@@](O)(C(=O)OC)[C@H](OC(C)=O)[C@]5(CC)C=CCN6CC[C@]43[C@@H]65)C2)C(=O)N(C(C)C)C1=O | 2.6 | 6 | 2.3 | 7.6 | 4.2 | 2.9 | Active | Toxic | – | – | – | – | – | – | – | –
C#Cc1ccc2[nH]c3c(c2c1)C/C(C(=O)OC)=C(/C(=O)NC(C)C)N1CC(CC)=C[C@@H](C1)C[C@]3(C(=O)OC)c1cc2c(cc1OC)N(C)[C@H]1[C@@](O)(C(=O)OC)[C@H](OC(C)=O)[C@]3(CC)C=CCN4CC[C@]21[C@@H]43 | 0.6 | 2.5 | 4 | 1.8 | 1 | 0.51 | – | – | – | – | – | – | – | – | – | –
CC[C@]1(O)C[C@@H]2CN(CCc3c([nH]c4ccccc34)[C@@](C(=O)OC)(c3cc4c(cc3OC)N(C)[C@H]3[C@@](O)(C(=O)OC)[C@H](OC(C)=O)[C@]5(CC)C=CCN6CC[C@]43[C@@H]65)C2)C1 [VINBLASTINE] | 0.004 | 0.48 | 120 | 1.2 | 0.7 | 0.42 | – | Toxic | – | – | – | – | – | – | – | –
CCC1=C[C@H]2CN(C1)/C(C(=O)NC(C)C)=C(/C(=O)OC)Cc1c([nH]c3ccccc13)[C@@](C(=O)OC)(c1cc3c(cc1OC)N(C)[C@H]1[C@@](O)(C(=O)OC)[C@H](OC(C)=O)[C@]4(CC)C=CCN5CC[C@]31[C@@H]54)C2 | 0.04 | 2 | 50 | 2.9 | 1.6 | 1.39 | – | – | – | – | – | – | – | – | – | –
CCOC(=O)/C1=C/N2CC(CC)=C[C@@H](C2)C[C@](C(=O)OC)(c2cc3c(cc2OC)N(C)[C@H]2[C@@](O)(C(=O)OC)[C@H](OC(C)=O)[C@]4(CC)C=CCN5CC[C@]32[C@@H]54)c2[nH]c3ccccc3c2C1 | 0.1 | > 10 | >100 | 7.2 | 4 | 0.64 | – | – | – | – | – | – | – | – | – | –
COc1cccc2c1C(=O)c1c(O)c3c(c(O)c1C2=O)C[C@@](O)(C(=O)CO)C[C@@H]3O[C@H]1C[C@H](N)[C@H](O)[C@H](C)O1 [DOXORUBICIN] | 0.047 | 35 | 745 | – | – | – | – | – | – | – | – | – | – | – | – | –
CCC1=C[C@H]2CN(C1)C1=C(Cc3c([nH]c4ccccc34)[C@@](C(=O)OC)(c3cc4c(cc3OC)N(C)[C@H]3[C@@](O)(C(=O)OC)[C@H](OC(C)=O)[C@]5(CC)C=CCN6CC[C@]43[C@@H]65)C2)C(=O)N(Cc2ccccc2)C1=O | 0.9 | 5 | 5.5 | 11.3 | 6.3 | 1.89 | Active | Toxic | 20 | 20 | Active | 40 | 90 | 20 | Active | Active
CCC1=C[C@@H]2CN(C1)Cc1c([nH]c3ccccc13)[C@@](C(=O)OC)(c1cc3c(cc1OC)N(C)[C@H]1[C@@](O)(C(=O)OC)[C@H](OC(C)=O)[C@]4(CC)C=CCN5CC[C@]31[C@@H]54)C2 [VINORELBINE] | 0.003 | 0.41 | 137 | 1.6 | 0.9 | 0.42 | – | Toxic | – | – | – | – | – | – | – | –
CCC1=C[C@H]2CN(C1)C1=C(Cc3c([nH]c4ccccc34)[C@@](C(=O)OC)(c3cc4c(cc3OC)N(C)[C@H]3[C@@](O)(C(=O)OC)[C@H](OC(C)=O)[C@]5(CC)C=CCN6CC[C@]43[C@@H]65)C2)C(=O)N(CC(C)C)C1=O | 0.45 | 2.5 | 5.5 | 36 | 20 | 7.72 | Active | Toxic | – | – | – | – | – | – | – | –
CCC1=C[C@H]2CN(C1)/C(C(=O)NCc1ccccc1)=C(/C(=O)OC)Cc1c([nH]c3ccccc13)[C@@](C(=O)OC)(c1cc3c(cc1OC)N(C)[C@H]1[C@@](O)(C(=O)OC)[C@H](OC(C)=O)[C@]4(CC)C=CCN5CC[C@]31[C@@H]54)C2 | 0.04 | 6 | 150 | 2.2 | 1.2 | 0.55 | – | – | – | – | – | – | – | – | – | –
CCC1=C[C@H]2CN(/C=C(/C(=O)OCc3ccccc3)Cc3c([nH]c4ccccc34)[C@@](C(=O)OC)(c3cc4c(cc3OC)N(C)[C@H]3[C@@](O)(C(=O)OC)[C@H](OC(C)=O)[C@]5(CC)C=CCN6CC[C@]43[C@@H]65)C2)C1 | 0.1 | > 10 | >100 | 2.3 | 1.3 | 0.48 | – | – | – | – | – | – | – | – | – | –
CCOC(=O)[C@@H]1Cc2c([nH]c3ccccc23)[C@@](C(=O)OC)(c2cc3c(cc2OC)N(C)[C@H]2[C@@](O)(C(=O)OC)[C@H](OC(C)=O)[C@]4(CC)C=CCN5CC[C@]32[C@@H]54)C[C@H]2C=C(CC)CN(C2)C1 | 0.08 | 3 | 37 | 5.3 | 2.9 | 0.77 | – | – | – | – | – | – | – | – | – | –
